Article PMC11267923, “Metagenome-derived SusD-homologs affiliated with Bacteroidota bind to synthetic polymers” (Applied and Environmental Microbiology, 2024)
pKd: −log10 of the molar value.

Assays:
SusD1 (SusD1Δ1–22) = target: T1, SusD1 (SusD1Δ1–22) (Prevotella sp. Sc00044, UniProt W5QTG3); experiment: SPR, Biacore T200, His-captured protein, single-cycle kinetics, […] fit; assay type: binding
T1 construct: gene susD; Sec/SPII signal peptide 1-22 removed; C-terminal His6 from pET21a(+); expressed in E. coli BL21(DE3)

[1] = target: T2, SusD38489 (SusD38489Δ1–25); experiment: as above; parameters: species or system uncultured Bacteroidota bacterium; settings: 25 °C; 0.1 M potassium phosphate pH 7 reference buffer; one binding site
T2 construct: gene susD; Sec/SPII signal peptide 1-25 removed; C-terminal His6 from pET21a(+); expressed in E. coli BL21(DE3)

T1 sequence (W5QTG3 23-580 limits assumed, stated change not applied): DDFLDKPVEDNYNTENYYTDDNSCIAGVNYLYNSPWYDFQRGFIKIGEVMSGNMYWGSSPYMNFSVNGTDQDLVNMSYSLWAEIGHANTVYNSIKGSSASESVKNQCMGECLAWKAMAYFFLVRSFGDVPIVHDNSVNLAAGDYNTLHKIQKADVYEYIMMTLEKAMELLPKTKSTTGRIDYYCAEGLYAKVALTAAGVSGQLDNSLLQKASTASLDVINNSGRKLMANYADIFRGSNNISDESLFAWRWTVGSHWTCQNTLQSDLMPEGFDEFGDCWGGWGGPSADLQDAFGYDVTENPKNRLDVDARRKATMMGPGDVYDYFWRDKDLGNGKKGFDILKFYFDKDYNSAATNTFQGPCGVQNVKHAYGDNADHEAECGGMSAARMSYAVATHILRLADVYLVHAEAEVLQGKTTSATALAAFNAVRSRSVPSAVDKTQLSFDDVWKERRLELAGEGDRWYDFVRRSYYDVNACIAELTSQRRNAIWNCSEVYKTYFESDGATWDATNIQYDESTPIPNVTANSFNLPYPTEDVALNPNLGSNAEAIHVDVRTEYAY

Compound `O=C(OCCO)c1ccc(C(=O)OCCO)cc1` [BHET, Bis(2-Hydroxyethyl) terephthalate] has a pKd (SusD1 (SusD1Δ1–22)) of 9.52 and a pKd [1] of 8.00.
